Structures are written as SMILES. “Also recorded” adds a separate entry of the source.

Here are results for one molecule from patent publication US12606517B2, “Ibuprofen ester derivative and emulsion preparation thereof” (NANJING HERON PHARMACEUTICAL SCIENCE AND TECHNOLOGY CO., …, priority 2021, dated 2026).

A short description of data set [1]: Pharmacokinetics of PEG400 solution versus emulsion injection in rats (Test Example 5). Type of data set: in vivo. The note with it: tail vein, equimolar dose. How it is done:
The PEG solution (3250 μL) of the test compound was pipetted into a 10 mL EP tube, 1750 μL of normal saline was added into the tube with the dispensing gun, and the mixture was vortexed to be uniformly mixed to obtain a dosing solution with a concentration of 1.3 mg/mL and a volume of 5 mL.
Method for preparing the test solution of N9(S) (emulsion injection): an emulsion injection (215 μL) containing N9(S) compound (the content of which was 60 mg/mL) was added into a 15 mL EP tube and 10 mL of normal saline was added into the tube with a dispensing gun to obtain a dosing solution with a concentration of 1.3 mg/mL and […].

Data set [2] in a line: Metabolism of the compound in human plasma in vitro. The data set is classed as in vitro ADME. On the procedure:
In the present application, the conversion characteristics of Compound N9 and its isomers were evaluated by establishing an in vitro human plasma metabolism model. The test scheme was as follows: • (1) stock solutions (40 mM) of Compounds N9, N9(S) and N9(R) in pure acetonitrile were formulated respectively, and a stock solution (40 mM) of ibuprofen in pure acetonitrile was formulated; • (2) 25 μL stock solution of ibuprofen was mixed with 1 mL of human plasma and vortexed for 30 s. […]

For the molecule `CCOC(=O)OC(CC)OC(=O)[C@@H](C)c1ccc(CC(C)C)cc1` (stereo partly drawn) [N9(S)], the “drug-time curve of dexibuprofen in vivo versus arginine solution of dexibuprofen (in words)” value in data set [1] (PEG400 solubilized solution) and in data set [1] (emulsion injection) was “basically coincide” each time. Also, in data set [2] (37° C., 120 min), the “Remaining amount of a prodrug compound (%)” value is 45.0 ± 2.1%. The “hydrolysis / metabolic rate in plasma (in words)” value in data set [2] (comparison between isomers) was “faster hydrolysis rate in plasma than N9(R); also recorded: faster metabolic rate than the racemate N9”.
